Several values for one entry are separate records, joined by “and”; a condition that tells them apart may be missing. Equal entries are not always repeated. Inconclusive results and toxic doses are left out.
Tested on: CD2F1 mice, L1210 leukemia ip, survival T/C
Assay: NCI In Vivo Anticancer Drug Screen. Data for tumor model L1210 Leukemia (intraperitoneal) in CD2F1 (CDF1) mice
Conditions: higher = longer survival
In short: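 Activity against a transplanted murine tumor was judged by comparing the compound group with a vehicle group. The outcome in the treated animals was divided by that in the controls.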

[1] = endpoint: mean survival time, dose: 100.0 mg/kg/injection, schedule: Q04DX003 (ip), vehicle: saline with Tween-80
[2] = endpoint: mean survival time, dose: 200.0 mg/kg/injection, schedule: Q04DX003 (ip), vehicle: saline with Tween-80
[3] = endpoint: mean survival time, dose: 400.0 mg/kg/injection, schedule: Q04DX003 (ip), vehicle: saline with Tween-80
[4] = endpoint: mean survival time, dose: 100.0 mg/kg/injection, schedule: Q01DX009 (ip), vehicle: saline with Tween-80
[5] = endpoint: mean survival time, dose: 200.0 mg/kg/injection, schedule: Q01DX009 (ip), vehicle: saline with Tween-80
[6] = endpoint: mean survival time, dose: 400.0 mg/kg/injection, schedule: Q01DX009 (ip), vehicle: saline with Tween-80

For `CC1CC2C3(C1)CC(C(=O)OC3=O)C2(C)C` (configuration not stated), the T/C (endpoint: mean survival time, dose: 75.0 mg/kg/injection, schedule: Q01DX001 (ip), vehicle: other) was 94 % of control, the T/C (endpoint: mean survival time, dose: 150.0 mg/kg/injection, schedule: Q01DX001 (ip), vehicle: other) was 92 % of control and the T/C (endpoint: mean survival time, dose: 300.0 mg/kg/injection, schedule: Q01DX001 (ip), vehicle: other) was 92 % of control.
`O=NNc1ccc2cccnc2n1` was tested, and the T/C (endpoint: median survival time, dose: 12.5 mg/kg/injection, schedule: Q01DX005 (ip), vehicle: water) was 153 % of control, the T/C (endpoint: median survival time, dose: 25.0 mg/kg/injection, schedule: Q01DX005 (ip), vehicle: water) was 162 % of control and the T/C (endpoint: median survival time, dose: 50.0 mg/kg/injection, schedule: Q01DX005 (ip), vehicle: water) was 164 % of control. The T/C (endpoint: median survival time, dose: 60.0 mg/kg/injection, schedule: Q01DX005 (ip), vehicle: water) was 223 % of control, the T/C (endpoint: median survival time, dose: 100.0 mg/kg/injection, schedule: Q01DX005 (ip), vehicle: water) was 175 % of control and 181 % of control and the T/C (endpoint: median survival time, dose: 166.66 mg/kg/injection, schedule: Q01DX005 (ip), vehicle: water) was 105 % of control.
With `O=NN1CC2CCC1CC2` the T/C (endpoint: mean survival time, dose: 5.0 mg/kg/injection, schedule: Q01DX001 (ip), vehicle: saline with Tween-80) was 98 % of control and the T/C (endpoint: mean survival time, dose: 10.0 mg/kg/injection, schedule: Q01DX001 (ip), vehicle: saline with Tween-80) was 101 % of control.
In the case of `Nc1ccc(-n2nc3ccc4ccccc4c3n2)cc1`, the T/C (endpoint: mean survival time, dose: 25.0 mg/kg/injection, schedule: Q04DX002 (ip), vehicle: saline with Tween-80) is reported as 98 % of control, the T/C (endpoint: mean survival time, dose: 50.0 mg/kg/injection, schedule: Q04DX002 (ip), vehicle: saline with Tween-80) is reported as 98 % of control and the T/C (endpoint: mean survival time, dose: 100.0 mg/kg/injection, schedule: Q04DX002 (ip), vehicle: saline with Tween-80) is reported as 103 % of control.
With `O=C(NC(CCO)C(=O)O)OCc1ccccc1` (configuration not stated) the T/C (endpoint: mean survival time, dose: 75.0 mg/kg/injection, schedule: Q04DX003 (ip), vehicle: saline) was 95 % of control, the T/C (endpoint: mean survival time, dose: 150.0 mg/kg/injection, schedule: Q04DX003 (ip), vehicle: saline) was 98 % of control and the T/C (endpoint: mean survival time, dose: 300.0 mg/kg/injection, schedule: Q04DX003 (ip), vehicle: saline) was 101 % of control.
With `Cc1cc(C)c(/C(O)=C/C(=S)N2CCOCC2)c(C)c1` the T/C [1] was 98 % of control, the T/C [2] was 98 % of control and the T/C [3] was 98 % of control.
In the case of `Cn1cnc([N+](=O)[O-])c1Sc1cn(C2CC(O)C(CO)O2)c(=O)[nH]c1=O` (configuration not stated), the T/C (endpoint: mean survival time, dose: 12.5 mg/kg/injection, schedule: Q01DX005 (ip), vehicle: water) is reported as 102 % of control, the T/C (endpoint: mean survival time, dose: 25.0 mg/kg/injection, schedule: Q01DX005 (ip), vehicle: water) is reported as 102 % of control and the T/C (endpoint: mean survival time, dose: 50.0 mg/kg/injection, schedule: Q01DX005 (ip), vehicle: water) is reported as 104 % of control. For the same compound, the T/C (endpoint: mean survival time, dose: 100.0 mg/kg/injection, schedule: Q01DX005 (ip), vehicle: water) was 98 % of control and the T/C (endpoint: mean survival time, dose: 200.0 mg/kg/injection, schedule: Q01DX005 (ip), vehicle: water) was 106 % of control.
With `COc1ccc(NC(=O)c2ccc(C(=O)Nc3ccc(OC)cc3)cc2)cc1` the T/C (endpoint: mean survival time, dose: 100.0 mg/kg/injection, schedule: Q01DX009 (ip), vehicle: saline) was 96 % of control, the T/C (endpoint: mean survival time, dose: 200.0 mg/kg/injection, schedule: Q01DX009 (ip), vehicle: saline) was 90 % of control and the T/C (endpoint: mean survival time, dose: 400.0 mg/kg/injection, schedule: Q01DX009 (ip), vehicle: saline) was 98 % of control.
`O=c1c2cc([N+](=O)[O-])cc3c2-c2c4c(cc([N+](=O)[O-])cc14)c(O)c1cc([N+](=O)[O-])cc(c3=O)c21` was tested, and the T/C [4] was 103 % of control, the T/C [5] was 117 % of control and the T/C [6] was 113 % of control.
With `O=C(OCCO)c1ccccc1` the T/C [4] was 98 % of control, the T/C [1] was 95 % of control and the T/C [5] was 97 % of control. The T/C [2] was 98 % of control, the T/C [6] was 97 % of control and the T/C [3] was 103 % of control.

From PubChem BioAssay AID256 (DTP/NCI, 2004)
